Entries after “also recorded” stand apart in the source; their conditions may differ.
Columns and labels:
[1] = tested on: glial progenitor cells derived from human ES cells (Olig2 positive cells); experiment: hOPC differentiation assay, Olig2 positive cells (immunostaining, high content screening); assay type: cell-based
Experimental: In order to initiate differentiation 20,000 GPCs were seeded in each well of Matrigel coated plates of 96 wells, or on PolyD-Lysine/laminin (PDL/lam)-coated 96 well plates. Cells were grown in GM media for two to three days. Then GM was replaced by differentiation medium without growth factors, (DMEM/F12, 1% B27, 0.5% N2, Vitamin C (Sigma, 50 ug/ml). Differentiation medium was supplemented with the following tested compounds: […] All media were replaced every other day. The oligodendrocyte lineage cells were characterized by the expression of a transcription factor olig2. The rabbit polyclonal AB anti olig2 (Millipore cat AB9610) was added to PFA fixed cells. […] The fixed cells were washed three times in blocking solution, olig2 diluted 1/500, in blocking solution, was added for 1 hour. The fixed cells were washed with PBS 3 times and goat anti rabbit Alexa Fluor 568 1/500 in PBS was added for 45 minutes. The fixed cells were washed three times. ArrayScan VTI HCS reader system (Cellomis, Thermo-scientific) was used for scanning at least 20 fields for each tested well under 10× objective in both assays (differentiation and myelination). Cellomics Neural profiling bio-application was used for processing and analyzing the images. For differentiation assay, the following parameters were tested: number and percentage of O4+ cells, number of processes, processes length and number of branching points. For myelination assay, the same morphological parameters were tested and in addition: areas of myelinated axons in pixels (MBP&NF overlap area) and Number of myelinated regions (MBP&NF overlap count) were also analyzed. Modifications in the Neuro-profiling bio-application were conducted for this specific purpose. T-test analysis was used to compare between treatments. The 4-parameter Hill-Slope curve fittings were generated by GraphPad Prism software using least squares fitting method and EC50 values were calculated. […] The cells at passage five were cultured for three days with GM on 96 well plates and after fixation, cells were reacted with anti-olig2 Ab, and olig2 positive cells and nuclei were scanned in the Thermo Scientific™ ArrayScan™ XTI High Content Analysis (HCA) Reader and counted with the neural profiling program. On the other hand the cells surface antigens O4 and PDGFRa were detected on dissociated cells after fixation and reaction with O4 Ab conjugated to APC, anti PDGFRa PE, as well as A2B5 PE all obtained from BD. Flow cytometry was conducted in BD FACS Canto II. […] Time points used for analysis are 21, 28, 35 and 42 days of differentiation, for each time point 20 fields were analyzed. […] In this experiment, cells at passage 4 were pretreated in differentiation medium with Noggin for 14 days, and split before seeding on 96 well plates.

[2] = tested on: human oligodendrocytes precursor cells (hOPC); experiment: Microarray gene expression analysis of LDN treated hOPC; assay type: cell-based; conditions: 125 nM, 35 days
Experimental: LDN (125 nM) was supplemented to human oligodendrocytes precursor cells (hOPC) for 35 days. Microarray analysis was performed on duplicate of LDN treated and Non-treated (NT) hOPC.

For `c1ccc2c(-c3cnn4cc(-c5ccc(N6CCNCC6)cc5)cnc34)ccnc2c1` [LDN-193189], the “Olig2+ cells number / differentiation (summary statement)” value [1] was “increased the number of O4+ and Olig2+ cells; also recorded: stimulates the formation of olig2 positive cells”, the EC50 ([1]; 21 days, differentiation medium without noggin, with or without PDGF (20 ng/ml), read-out: EC50 (percentage of olig2 positive cells)) was about 30 nM and the “number / percentage of Olig2+ cells (hOPC commitment)” value ([1]; day 21, Noggin 50 ng/ml + PDGF 20 ng/ml, Dorsomorphin 2 μM, LDN-193189 125 nM) was “increased the number of Olig2+”. The “conversion of neural stem cells to Olig2 positive cells” value ([1]; days 21, 28, 35, 42, noggin 100 ng/ml, LDN-193189 62.5 nM and 125 nM) was “stimulate the conversion of neural stem cells to Olig2 positive cells”, the “LDN expression value: ADAMTS5, cluster 16924620” value [2] was 4.59 and the “LDN expression value: AN04, cluster 16755712” value [2] was 3.1. The “LDN expression value: ARHGAP28, cluster 16850724” value [2] was 3.09, the “LDN expression value: ASPN, cluster 17095887” value [2] was 9.23 and the “LDN expression value: ATP8B1, cluster 16855510” value [2] was 3.98. For the same compound, the “LDN expression value: BCAS1, cluster 16920475” value [2] was 6.52, the “LDN expression value: BMP8B, cluster 16685729” value [2] was 4.53 and the “LDN expression value: C1QTNF9B-AS1, cluster 16773183” value [2] was 3.69. The “LDN expression value: CACNG5, cluster 16837160” value [2] was 5.71, the “LDN expression value: CATSPER2P1, cluster 16808340” value [2] was 5.12 and the “LDN expression value: CGB2, cluster 16863963” value [2] was 4.05. For the same compound, the “LDN expression value: CKMT1A, cluster 16800268” value [2] was 4.08, the “LDN expression value: CLDN25, cluster 16731401” value [2] was 4.26 and the “LDN expression value: CLVS2, cluster 17012223” value [2] was 4.53. The “LDN expression value: COL12A1, cluster 17020846” value [2] was 8.23, the “LDN expression value: CYTL1, cluster 16973934” value [2] was 5.81 and the “LDN expression value: DLX2, cluster 16905108” value [2] was 6.25. For the same compound, the “LDN expression value: DLX6-AS1, cluster 17060039” value [2] was 5.13, the “LDN expression value: EFTUD1P1, cluster 16804141” value [2] was 3.87 and the “LDN expression value: FLJ16124, cluster 16880774” value [2] was 3.13. The “LDN expression value: GABRQ, cluster 17107855” value [2] was 6.76, the “LDN expression value: GAD2, cluster 16703382” value [2] was 3.71 and the “LDN expression value: GFRA1, cluster 16718670” value [2] was 7.52. For the same compound, the “LDN expression value: GJB2, cluster 16777185” value [2] was 4.88, the “LDN expression value: GPR126, cluster 17013126” value [2] was 5.42 and the “LDN expression value: GRIK1, cluster 16924761” value [2] was 7.51. The “LDN expression value: GSX2, cluster 16966801” value [2] was 4.62, the “LDN expression value: HCG24, cluster 17028423” value [2] was 2.38 and the “LDN expression value: ID1, cluster 16912362” value [2] was 4.47. For the same compound, the “LDN expression value: ID3, cluster 16683377” value [2] was 5.5, the “LDN expression value: IGLV3-9, cluster 16927827” value [2] was 5.34 and the “LDN expression value: IL17RB, cluster 16941871” value [2] was 4.55. The “LDN expression value: INSM1, cluster 16911917” value [2] was 6.13, the “LDN expression value: KIAA1199, cluster 16803754” value [2] was 4.07 and the “LDN expression value: LOC284632, cluster 16660753” value [2] was 3.33. The “LDN expression value: LOC100286922, cluster 16909695” value [2] was 3.3, the “LDN expression value: LPAR3, cluster 16688992” value [2] was 5.8 and the “LDN expression value: LRRC7, cluster 16665976” value [2] was 3.48. For the same compound, the “LDN expression value: LRRTM1, cluster 16899533” value [2] was 3.97, the “LDN expression value: MIR1226, cluster 16940440” value [2] was 4.98 and the “LDN expression value: MIR1321, cluster 17105179” value [2] was 3.47. For the same compound, the “LDN expression value: MIR3160-1, cluster 16724356” value [2] was 4.18, the “LDN expression value: MSLNL, cluster 16822561” value [2] was 5.67 and the “LDN expression value: NUDT9P1, cluster 16716499” value [2] was 3.56. The “LDN expression value: OR2V1, cluster 17004061” value [2] was 3.13, the “LDN expression value: OTTHUMG00000156244, cluster 17056553” value [2] was 4.16 and the “LDN expression value: OTTHUMG00000176466, cluster 16826102” value [2] was 5.02. The “LDN expression value: PAPPA2, cluster 16674151” value [2] was 4.24, the “LDN expression value: PDE5A, cluster 16979339” value [2] was 4.13 and the “LDN expression value: PPP1R17, cluster 17044956” value [2] was 5.13. For the same compound, the “LDN expression value: RNA5SP482, cluster 16912470” value [2] was 2.92, the “LDN expression value: SCARNA1, cluster 16661495” value [2] was 2.28 and the “LDN expression value: SCGN, cluster 17005473” value [2] was 6.7. The “LDN expression value: SERPINA3, cluster 16787902” value [2] was 5.07, the “LDN expression value: SLC1A2, cluster 16737325” value [2] was 6.08 and the “LDN expression value: SLC1A4, cluster 16880712” value [2] was 8.96. For the same compound, the “LDN expression value: SLC1A5, cluster 16873632” value [2] was 6.29, the “LDN expression value: SNORA70B, cluster 16898108” value [2] was 2.38 and the “LDN expression value: SNORD1B, cluster 16838101” value [2] was 3.01. For the same compound, the “LDN expression value: SNORD37, cluster 16867229” value [2] was 3.63, the “LDN expression value: SNORD88B, cluster 16874641” value [2] was 5.05 and the “LDN expression value: SOX10, cluster 16934881” value [2] was 6.63. For the same compound, the “LDN expression value: SP8, cluster 17055689” value [2] was 4.65, the “LDN expression value: ST18, cluster 17077073” value [2] was 2.85 and the “LDN expression value: TEX35, cluster 16674240” value [2] was 3.05. The “LDN expression value: TNFAIP6, cluster 16886491” value [2] was 5.47, the “LDN expression value: TNR, cluster 16696624” value [2] was 8.09 and the “LDN expression value: TRAJ46, cluster 16782032” value [2] was 3.99. For the same compound, the “LDN expression value: TRIM65, cluster 16848961” value [2] was 5.41, the “LDN expression value: TTK, cluster 17010552” value [2] was 5.68 and the “LDN expression value: UGT8, cluster 16970001” value [2] was 8.99. The “LDN expression value: WIF1, cluster 16767081” value [2] was 5.73, the “LDN expression value: ZIC2, cluster 16776103” value [2] was 4.76 and the “LDN expression value: cluster 16662690” value [2] was 3.02. The “LDN expression value: cluster 16689704” value [2] was 2.34, the “LDN expression value: cluster 16697040” value [2] was 3.18 and the “LDN expression value: cluster 16697217” value [2] was 3.02. For the same compound, the “LDN expression value: cluster 16703561” value [2] was 5.3, the “LDN expression value: cluster 16707466” value [2] was 3.92 and the “LDN expression value: cluster 16740950” value [2] was 5.53. The “LDN expression value: cluster 16742286” value [2] was 4.35, the “LDN expression value: cluster 16758848” value [2] was 4.29 and the “LDN expression value: cluster 16766940” value [2] was 6.76. The “LDN expression value: cluster 16781352” value [2] was 4.74, the “LDN expression value: cluster 16797929” value [2] was 5.86 and the “LDN expression value: cluster 16834632” value [2] was 3.21. For the same compound, the “LDN expression value: cluster 16846798” value [2] was 5.15, the “LDN expression value: cluster 16906256” value [2] was 3.32 and the “LDN expression value: cluster 16926511” value [2] was 5.66. For the same compound, the “LDN expression value: cluster 16928859” value [2] was 2.2, the “LDN expression value: cluster 16985206” value [2] was 3.41 and the “LDN expression value: cluster 16997369” value [2] was 4.3. For the same compound, the “LDN expression value: cluster 17012233” value [2] was 3.53, the “LDN expression value: cluster 17042403” value [2] was 7.47 and the “LDN expression value: cluster 17056789” value [2] was 6.64. The “LDN expression value: cluster 17063571” value [2] was 2.81, the “LDN expression value: cluster 17112263” value [2] was 2.9 and the “LDN expression value: cluster 17117590” value [2] was 5.68. For the same compound, the “LDN expression value: cluster 17118266” value [2] was 2.43, the “LDN expression value: cluster 17118303” value [2] was 3.61 and the “LDN expression value: cluster 17124590” value [2] was 2.62.

Source: patent US20170095512A1, “METHODS OF INDUCING MYELINATION AND MATURATION OF OLIGODENDROCYTES” (KADIMASTEM LTD., priority 2014, published 2017)
